Where two headings read alike, the source gives them in different places. Each block holds one compound with its values, some of them ahead of it.
Key:
MCF-7 [1] = experiment: MTT anti-proliferative assay toward MCF-7; settings: Homo sapiens, MCF7, 48 h, read-out: IC50 toward MCF-7
Experimental: Anti-proliferative activities were done using the MTT colorimetric assay [58]. Cell viability was assessed after 48 h, and the viability was calculated relative to the control [59]
Experimental of biological evaluations
Anti-proliferative activities were done using MTT colorimetric assay.
Both cell lines were provided with 10% fetal bovine serum (FBS, Sigma-Aldrich, MO, USA) and 1% penicillin-streptomycin (Lonza, Belgium). Cells were incubated following standard tissue culture work. Cell viability was assessed after 48 h using MTT solution (Promega, USA). Absorbance was subsequently measured (at 570 nm) using ELISA microplate reader (BIO-RAD, model iMark, Japan). The viability was calculated relative to control.
EGFR and HER2 enzyme inhibition
(§1) Measurement of potential EGFR/ HER2 inhibitory activities was performed using EGFR
(§2) following equation was used to determine the proportion of autophosphorylation inhibition by
concentrations for each compound.
Cell cycle analysis and apoptotic assay
MCF-7 cells were seeded into 6-well culture plates (3-5× 10^5 cells/well) and incubated
48 h. Subsequently, cells and medium supernatants were gathered and washed with ice-cold PBS.
The cells were then suspended in 100 µL of the annexin binding buffer solution, which was described as "25 mM CaCl 2, 1.4 M NaCl, and 0.1 M Hepes/NaOH, pH 7.4”. The cell incubation and addition of Annexin V-FITC solution, and propidium iodide (PI) were done according to the reported procedure. Next, the Cytoflex FACS equipment was used to obtain the stained cells. The program CytExpert was used to analyze the data.

EGFR = settings: cited from earlier work
MCF-7 [2] = settings: cited from earlier work
MCF-10A = experiment: MTT cytotoxicity assay toward MCF-10A; format: cell-based; settings: Homo sapiens, 48 h
EGFR Kinase = EGFR Kinase (Homo sapiens, UniProt P00533); experiment: EGFR kinase inhibitory assay (BPS Bioscience kit)
Experimental: Experimental of biological evaluations
EGFR and HER2 enzyme inhibition
as §1, §2
concentrations for each compound.

HER2 Kinase = HER2 Kinase (Homo sapiens, UniProt P04626); experiment: HER2 kinase inhibitory assay (BPS Bioscience kit)
Experimental: Experimental of biological evaluations
EGFR and HER2 enzyme inhibition
as §1, §2
concentrations for each compound.

T-47D cell line = system: T-47D cell line; parameters: method as in PMID 37049966; settings: cited from earlier work
HER2 = settings: cited from earlier work
MCF-7 [3] = experiment: Cell cycle analysis in MCF-7; format: cell-based; settings: for DNA Content %G0-G1 / DNA Content %G2/M / DNA Content %S: MCF-7, compound at its IC50, 48 h
MCF-7 cells = experiment: Annexin V/PI apoptosis analysis in MCF-7; format: cell-based; settings: MCF-7, compound at its IC50, 48 h
A549 = system: A549; parameters: method as in PMID 21802290; settings: cited from earlier work

HER2 Kinase, sequence (P04626 23-1255): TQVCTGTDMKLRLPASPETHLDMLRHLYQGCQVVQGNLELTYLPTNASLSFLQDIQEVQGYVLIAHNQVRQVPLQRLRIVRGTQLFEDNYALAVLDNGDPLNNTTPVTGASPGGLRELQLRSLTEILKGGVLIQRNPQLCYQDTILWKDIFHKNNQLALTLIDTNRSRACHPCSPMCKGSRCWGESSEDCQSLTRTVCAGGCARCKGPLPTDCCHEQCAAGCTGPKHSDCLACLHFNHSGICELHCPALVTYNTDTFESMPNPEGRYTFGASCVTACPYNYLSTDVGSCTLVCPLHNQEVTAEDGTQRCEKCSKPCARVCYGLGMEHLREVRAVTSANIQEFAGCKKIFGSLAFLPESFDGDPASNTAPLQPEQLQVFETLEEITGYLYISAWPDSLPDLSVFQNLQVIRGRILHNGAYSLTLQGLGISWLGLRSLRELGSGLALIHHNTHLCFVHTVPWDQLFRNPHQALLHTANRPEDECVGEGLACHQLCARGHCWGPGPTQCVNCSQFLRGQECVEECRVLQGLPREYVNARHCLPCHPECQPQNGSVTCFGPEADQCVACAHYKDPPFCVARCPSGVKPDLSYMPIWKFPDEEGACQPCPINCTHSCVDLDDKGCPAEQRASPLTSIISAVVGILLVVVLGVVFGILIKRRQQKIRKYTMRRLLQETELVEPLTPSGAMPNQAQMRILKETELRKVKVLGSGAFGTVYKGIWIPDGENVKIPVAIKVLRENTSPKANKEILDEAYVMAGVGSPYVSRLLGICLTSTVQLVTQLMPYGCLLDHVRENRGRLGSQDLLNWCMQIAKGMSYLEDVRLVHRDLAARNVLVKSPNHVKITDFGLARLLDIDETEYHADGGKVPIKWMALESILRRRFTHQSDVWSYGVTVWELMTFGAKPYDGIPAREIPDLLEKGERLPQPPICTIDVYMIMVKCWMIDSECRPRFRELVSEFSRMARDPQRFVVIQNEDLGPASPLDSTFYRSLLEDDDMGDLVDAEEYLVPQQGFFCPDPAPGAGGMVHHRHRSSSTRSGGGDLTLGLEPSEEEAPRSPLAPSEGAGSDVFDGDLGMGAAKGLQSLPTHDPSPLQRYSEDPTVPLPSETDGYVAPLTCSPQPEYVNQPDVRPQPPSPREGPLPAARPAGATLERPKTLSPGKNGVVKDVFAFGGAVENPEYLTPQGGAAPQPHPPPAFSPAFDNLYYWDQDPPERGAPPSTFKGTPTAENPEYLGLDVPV
EGFR Kinase, sequence (P00533 25-1210): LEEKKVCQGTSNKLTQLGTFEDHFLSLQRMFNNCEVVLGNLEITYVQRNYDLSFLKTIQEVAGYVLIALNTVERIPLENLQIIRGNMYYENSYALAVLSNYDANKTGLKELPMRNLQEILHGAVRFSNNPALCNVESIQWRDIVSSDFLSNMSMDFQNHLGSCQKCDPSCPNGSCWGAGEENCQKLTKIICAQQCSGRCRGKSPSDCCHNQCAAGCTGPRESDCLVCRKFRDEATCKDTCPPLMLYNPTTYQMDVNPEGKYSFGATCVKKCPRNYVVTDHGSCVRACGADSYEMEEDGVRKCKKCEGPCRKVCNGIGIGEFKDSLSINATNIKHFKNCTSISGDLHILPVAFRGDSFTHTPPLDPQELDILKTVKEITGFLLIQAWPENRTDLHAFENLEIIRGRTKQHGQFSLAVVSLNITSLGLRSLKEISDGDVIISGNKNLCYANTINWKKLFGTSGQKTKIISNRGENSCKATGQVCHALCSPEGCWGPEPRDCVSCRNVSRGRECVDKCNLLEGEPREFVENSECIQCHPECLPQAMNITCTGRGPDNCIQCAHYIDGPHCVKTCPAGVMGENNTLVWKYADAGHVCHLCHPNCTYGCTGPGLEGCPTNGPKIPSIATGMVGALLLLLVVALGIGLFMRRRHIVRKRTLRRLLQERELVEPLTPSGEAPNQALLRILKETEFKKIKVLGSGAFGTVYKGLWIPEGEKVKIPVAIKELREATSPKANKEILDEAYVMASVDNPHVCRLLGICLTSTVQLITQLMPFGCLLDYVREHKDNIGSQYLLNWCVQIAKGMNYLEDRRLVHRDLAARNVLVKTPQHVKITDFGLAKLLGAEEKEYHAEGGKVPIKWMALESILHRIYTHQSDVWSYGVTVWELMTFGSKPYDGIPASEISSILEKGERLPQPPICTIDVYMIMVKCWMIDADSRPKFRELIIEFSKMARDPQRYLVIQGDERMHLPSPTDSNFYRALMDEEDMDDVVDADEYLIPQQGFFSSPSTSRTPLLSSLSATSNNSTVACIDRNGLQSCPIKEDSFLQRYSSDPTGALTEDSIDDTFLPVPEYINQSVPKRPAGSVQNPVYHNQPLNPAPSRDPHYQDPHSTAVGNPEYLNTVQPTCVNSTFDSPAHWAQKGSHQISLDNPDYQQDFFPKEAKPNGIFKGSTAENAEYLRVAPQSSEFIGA

melting point: 250 to 252 °C
IC50 (MCF-7 [1]): 20.17 ± 0.19 µM
Compound: COc1ccc(C=C2SC(N3N=C(c4ccc(OC)c(OC)c4)CC3c3ccc(Cl)cc3)=NC2=O)cc1 (centres unmarked) [Compound 7d, 2-(5-(4-Chlorophenyl)-3-(3,4-dimethoxyphenyl)-4,5-dihydro-1H-pyrazol-1-yl)-5-(4-methoxybenzylidene)thiazol-4(5H)-one]

melting point: 283 to 285 °C
IC50 (MCF-7 [1]): 21.2 ± 0.24 µM
Compound: COc1ccc(C2=NN(C3=NC(=O)C(=Cc4ccccc4)S3)C(c3ccc(Cl)cc3)C2)cc1OC (centres unmarked) [Compound 7c, 5-Benzylidene-2-(5-(4-chlorophenyl)-3-(3,4-dimethoxyphenyl)-4,5-dihydro-1H-pyrazol-1-yl)thiazol-4(5H)-one]

melting point: 294 to 296 °C
IC50 (MCF-7 [1]): 17.79 ± 0.14 µM
Compound: COc1ccc(C2CC(c3ccc(OC)c(OC)c3)=NN2C2=NC(=O)C(=Cc3ccccc3)S2)cc1 (centres unmarked) [Compound 7a, 5-Benzylidene-2-(3-(3,4-dimethoxyphenyl)-5-(4-methoxyphenyl)-4,5-dihydro-1H-pyrazol-1-yl)thiazol-4(5H)-one]

melting point: 238 to 240 °C
IC50 (MCF-7 [1]): 3.54 ± 0.07 µM
IC50 (EGFR Kinase): 0.029 ± 0.004 µM
IC50 (HER2 Kinase): 0.065 ± 0.007 µM
Compound: COc1ccc(C2=NN(c3nc(-c4cc5ccccc5oc4=O)cs3)C(c3ccc(Cl)cc3)C2)cc1OC (centres unmarked) [Compound 10b, 3-(2-(5-(4-Chlorophenyl)-3-(3,4-dimethoxyphenyl)-4,5-dihydro-1H-pyrazol-1-yl)thiazol-4-yl)-2H-chromen-2-one]
IC50 (MCF-10A): 27.1 ± 1.98 µM

melting point: 245 to 247 °C
IC50 (MCF-7 [1]): 20 ± 0.22 µM
Compound: COc1ccc(C=C2SC(N3N=C(c4ccc(OC)c(OC)c4)CC3c3ccc(OC)cc3)=NC2=O)cc1 (centres unmarked) [Compound 7b, 2-(3-(3,4-Dimethoxyphenyl)-5-(4-methoxyphenyl)-4,5-dihydro-1H-pyrazol-1-yl)-5-(4-methoxybenzylidene)thiazol-4(5H)-one]

IC50 (MCF-7 [1]): 3.37 ± 0.13 µM
IC50 (EGFR Kinase): 0.005 ± 0.002 µM
IC50 (HER2 Kinase): 0.022 ± 0.005 µM
Compound: COc1ccc(C2CC(c3ccc(OC)c(OC)c3)=NN2c2nc(-c3cc4ccccc4oc3=O)cs2)cc1 (centres unmarked) [Compound 10a, 3-(2-(3-(3,4-Dimethoxyphenyl)-5-(4-methoxyphenyl)-4,5-dihydro-1H-pyrazol-1-yl)thiazol-4-yl)-2H-chromen-2-one]
IC50 (MCF-10A): ≥ 50 µM
DNA Content %G0-G1 (MCF-7 [3]): 66.41%
DNA Content %G2/M (MCF-7 [3]): 4.04%
DNA Content %S (MCF-7 [3]): 29.55%
cell accumulation at S phase relative to control (MCF-7 [3]; MCF-7, compound at its IC50, control 26.33%): 1.12 folds
cell accumulation at G0-G1 relative to control (MCF-7 [3]; MCF-7, compound at its IC50, control 62.59%): 1.06 folds
Apoptosis Early (MCF-7 cells): 19.22%
Apoptosis Late (MCF-7 cells): 15.91%
Necrosis (MCF-7 cells): 7.53%

melting point: > 300 °C
IC50 (MCF-7 [1]): 19.5 ± 0.27 µM
Compound: COc1ccc(C2=NN(C3=NC(=O)C(=C4C(=O)Nc5ccccc54)S3)C(c3ccc(Cl)cc3)C2)cc1OC (centres unmarked) [Compound 8b, 2-(5-(4-Chlorophenyl)-3-(3,4-dimethoxyphenyl)-4,5-dihydro-1H-pyrazol-1-yl)-5-(2-oxoindolin-3-ylidene)thiazol-4(5H)-one]

melting point: > 300 °C
IC50 (MCF-7 [1]): 21.33 ± 0.21 µM
Compound: COc1ccc(C2CC(c3ccc(OC)c(OC)c3)=NN2C2=NC(=O)C(=C3C(=O)Nc4ccccc43)S2)cc1 (centres unmarked) [Compound 8a, 2-(3-(3,4-Dimethoxyphenyl)-5-(4-methoxyphenyl)-4,5-dihydro-1H-pyrazol-1-yl)-5-(2-oxoindolin-3-ylidene)thiazol-4(5H)-one]

Second part, the compound before the results:

Compound: COc1ccc(C2CC(c3ccc(OC)c(OC)c3)=NN2C2=NC(=O)C(=NNc3ccc(S(N)(=O)=O)cc3)S2)cc1 (centres unmarked) [Compound 5b, 4-(2-(2-(3-(3,4-Dimethoxyphenyl)-5-(4-methoxyphenyl)-4,5-dihydro-1H-pyrazol-1-yl)-4-oxothiazol-5(4H)-ylidene)hydrazineyl)benzenesulfonamide]
melting point: 249 to 251 °C
IC50 (MCF-7 [1]): 27.31 ± 0.26 µM

Compound: Cc1ccc(C2=NN(c3nc(-c4ccc(Cl)cc4)cs3)C(c3ccc(F)cc3)C2)cc1C (centres unmarked) [I]
IC50 (EGFR): 0.06 µM
IC50 (MCF-7 [2]): 0.07 µM

Compound: COc1ccc(C2=NN(c3nc(C)c(N=Nc4ccc(Cl)cc4)s3)C(c3ccc(Cl)cc3)C2)cc1OC (centres unmarked) [Compound 4c, 2-(5-(4-Chlorophenyl)-3-(3,4-dimethoxyphenyl)-4,5-dihydro-1H-pyrazol-1-yl)-5-((4-chlorophenyl)diazenyl)-4-methylthiazole]
melting point: 210 to 212 °C
IC50 (MCF-7 [1]): 18.7 ± 0.22 µM

Compound: COc1ccc(C2=NN(C3=NC(=O)CS3)C(c3ccc(Cl)cc3)C2)cc1OC (centres unmarked) [Compound 6b, 2-(5-(4-Chlorophenyl)-3-(3,4-dimethoxyphenyl)-4,5-dihydro-1H-pyrazol-1-yl)thiazol-4(5H)-one]
IC50 (MCF-10A): 32.8 ± 1.27 µM
melting point: 208 to 210 °C
IC50 (MCF-7 [1]): 5.64 ± 0.11 µM
IC50 (EGFR Kinase): 0.026 ± 0.002 µM
IC50 (HER2 Kinase): 0.081 ± 0.006 µM

Compound: COc1ccc(C2=NN(C3=NC(=O)C(=NNc4ccc(S(N)(=O)=O)cc4)S3)C(c3ccc(Cl)cc3)C2)cc1OC (centres unmarked) [Compound 5d, 4-(2-(2-(5-(4-Chlorophenyl)-3-(3,4-dimethoxyphenyl)-4,5-dihydro-1H-pyrazol-1-yl)-4-oxothiazol-5(4H)-ylidene)hydrazineyl)benzenesulfonamide]
melting point: 292 to 294 °C
IC50 (MCF-7 [1]): 25.7 ± 0.12 µM

Compound: Cc1ccc(C2=NN(C3=NC(=O)/C(=C/c4ccc(O)cc4)S3)C(c3ccc(F)cc3)C2)cc1 (centres unmarked) [VI]
IC50 (EGFR): 0.083 µM
IC50 (T-47D cell line): 1.15 µM

Compound: COc1ccc(C2CC(c3ccc(OC)c(OC)c3)=NN2c2nc(-c3ccccc3)cs2)cc1 (centres unmarked) [IV]
IC50 (EGFR): 0.009 µM
IC50 (HER2): 0.013 µM
IC50 (MCF-7 [2]): 7.21 µM

Compound: CS(=O)(=O)CCNCc1ccc(-c2ccc3ncnc(Nc4ccc(OCc5cccc(F)c5)c(Cl)c4)c3c2)o1 [Lapatinib, reference compound]
IC50 (MCF-10A): ≥ 50 µM
IC50 (MCF-7 [1]): 5.88 ± 0.04 µM

Compound: COc1ccc(C2CC(c3ccc(OC)c(OC)c3)=NN2c2nc(C)c(N=Nc3ccc(Cl)cc3)s2)cc1 (centres unmarked) [Compound 4a, 5-((4-Chlorophenyl)diazenyl)-2-(3-(3,4-dimethoxyphenyl)-5-(4-methoxyphenyl)-4,5-dihydro-1H-pyrazol-1-yl)-4-methylthiazole]
melting point: 192 to 194 °C
IC50 (MCF-7 [1]): 18.6 ± 0.19 µM

Compound: Brc1ccc(C2=NN(c3nc(-c4ccc(Br)cc4)cs3)C(c3ccc4c(c3)OCO4)C2)cc1 (centres unmarked) [III]
IC50 (HER2): 0.18 µM
IC50 (MCF-7 [2]): 0.09 µM

Compound: COc1ccc(C2=NN(c3nc(C)c(N=Nc4ccc(S(N)(=O)=O)cc4)s3)C(c3ccc(Cl)cc3)C2)cc1OC (centres unmarked) [Compound 4d, 4-((2-(5-(4-Chlorophenyl)-3-(3,4-dimethoxyphenyl)-4,5-dihydro-1H-pyrazol-1-yl)-4-methylthiazol-5-yl)diazenyl)benzenesulfonamide]
melting point: 208 to 210 °C
IC50 (MCF-7 [1]): 17.1 ± 0.21 µM

Compound: COc1ccc(C2=NN(C3=NC(=O)C(=NNc4ccc(Cl)cc4)S3)C(c3ccc(Cl)cc3)C2)cc1OC (centres unmarked) [Compound 5c, 2-(5-(4-Chlorophenyl)-3-(3,4-dimethoxyphenyl)-4,5-dihydro-1H-pyrazol-1-yl)-5-(2-(4-chlorophenyl)hydrazineylidene)thiazol-4(5H)-one]
melting point: 278 to 280 °C
IC50 (MCF-7 [1]): 28.03 ± 0.25 µM

Compound: COc1ccc(C2CC(c3ccc(OC)c(OC)c3)=NN2C2=NC(=O)CS2)cc1 (centres unmarked) [Compound 6a, 2-(3-(3,4-Dimethoxyphenyl)-5-(4-methoxyphenyl)-4,5-dihydro-1H-pyrazol-1-yl)thiazol-4(5H)-one]
IC50 (MCF-10A): ≥ 50 µM
DNA Content %G0-G1 (MCF-7 [3]): 69.82%
DNA Content %G2/M (MCF-7 [3]): 8.12%
DNA Content %S (MCF-7 [3]): 22.06%
Apoptosis Early (MCF-7 cells): 28.17%
Apoptosis Late (MCF-7 cells): 17.98%
Necrosis (MCF-7 cells): 4.88%
IC50 (MCF-7 [1]): 4.08 ± 0.08 µM
IC50 (EGFR Kinase): 0.024 ± 0.005 µM
IC50 (HER2 Kinase): 0.047 ± 0.008 µM

Compound: COc1ccc(C2CC(c3ccc(Cl)cc3Cl)=NN2c2nc(C)c(C(=O)Nc3ccccc3)s2)cc1OC (centres unmarked) [II]
IC50 (EGFR): 0.032 µM
IC50 (A549): 2.92 µM

Compound: COc1ccc(C2CC(c3ccc(OC)c(OC)c3)=NN2C2=NC(=O)C(=NNc3ccc(Cl)cc3)S2)cc1 (centres unmarked) [Compound 5a, 5-(2-(4-Chlorophenyl)hydrazineylidene)-2-(3-(3,4-dimethoxyphenyl)-5-(4-methoxyphenyl)-4,5-dihydro-1H-pyrazol-1-yl)thiazol-4(5H)-one]
IC50 (MCF-7 [1]): 30.24 ± 0.24 µM

Compound: COc1ccc(C2CC(c3ccc(OC)c(OC)c3)=NN2c2nc(C)c(N=Nc3ccc(S(N)(=O)=O)cc3)s2)cc1 (centres unmarked) [Compound 4b, 4-((2-(3-(3,4-Dimethoxyphenyl)-5-(4-methoxyphenyl)-4,5-dihydro-1H-pyrazol-1-yl)-4-methylthiazol-5-yl)diazenyl)benzenesulfonamide]
melting point: 200 to 202 °C
IC50 (MCF-7 [1]): 17.12 ± 0.15 µM

Compound: COc1ccc2nc(Cl)c(C3CC(c4ccc(C)cc4)=NN3c3nc(-c4ccc(F)cc4)cs3)cc2c1 (centres unmarked) [V]
IC50 (EGFR): 0.031 µM
IC50 (MCF-7 [2]): 0.227 µM

From PMC10647861, “New Thiazolyl-Pyrazoline Derivatives as Potential Dual EGFR/HER2 Inhibitors: Design, Synthesis, Anticancer Activity Evaluation and In Silico Study” (Molecules, 2023)
